Assay results reported in publication PMC5267425, “Identification of small molecule modulators of HIV-1 Tat and Rev protein accumulation” (Retrovirology, 2017).
Values joined by “and” are separate entries in the source; they are usually repeats but may differ in a detail not shown here. Equal values may be shown once.

System: cellular gene expression in HeLa rtTA HIV∆Mls cells
Conditions: 9147791-treated cells, replicates

Q: With `Cc1cc(NCc2cccnc2)n2ncc(-c3ccc(Cl)cc3)c2n1` [Compound 791, 3-(4-chlorophenyl)-5-methyl-N-(3-pyridinylmethyl)pyrazolo[1,5-a]pyrimidin-7-amine] as the molecule, how does the ACTN1 expression level read?
A: 70.54 and 65.87

Q: What about the ADI1 expression level of the same molecule?
A: 21.28 and 20.50

Q: And the AGPAT2 expression level?
A: 26.74 and 28.83

Q: What about the ALDOC expression level of the same molecule?
A: 1.08 and 1.02

Q: What about the ANXA5 expression level of the same molecule?
A: 191.66 and 185.16

Q: What about the ANXA6 expression level of the same molecule?
A: 69.55 and 59.50

Q: What about the AP2M1 expression level of the same molecule?
A: 238.02 and 237.30

Q: And the APOBEC3B expression level?
A: 8.21 and 6.81

Q: And the ARF1 expression level?
A: 151.10 and 145.27

Q: And the ARHGAP11A expression level?
A: 26.24 and 25.64

Q: And the ARPC5 expression level?
A: 71.19 and 65.59

Q: And the ATP6V0A1 expression level?
A: 15.83 and 16.80

Q: And the ATP8B1 expression level?
A: 0.78 and 0.65

Q: And the B3GNT1 expression level?
A: 9.03 and 9.24

Q: And the BAT3 expression level?
A: 82.22 and 79.10

Q: And the BCOR expression level?
A: 21.09 and 21.93

Q: What about the BCORL1 expression level of the same molecule?
A: 5.39 and 5.54

Q: And the BHLHB9 expression level?
A: 1.05 and 1.03

Q: What about the BMPR1B expression level of the same molecule?
A: 0.73 and 0.81

Q: And the BST2 expression level?
A: 245.44 and 203.71

Q: And the C1orf115 expression level?
A: 6.22 and 6.65

Q: What about the C3orf59 expression level of the same molecule?
A: 1.02 and 1.00

Q: And the C5orf13 expression level?
A: 10.12 and 9.25

Q: What about the C5orf15 expression level of the same molecule?
A: 25.66 and 24.81

Q: And the C6orf145 expression level?
A: 25.69 and 26.94

Q: And the C9orf3 expression level?
A: 5.07 and 4.02

Q: What about the C9orf163 expression level of the same molecule?
A: 0.72 and 0.74

Q: And the C10orf76 expression level?
A: 6.17 and 6.53

Q: What about the C10orf114 expression level of the same molecule?
A: 6.12 and 7.21

Q: What about the C14orf147 expression level of the same molecule?
A: 24.04 and 21.03

Q: What about the C19orf28 expression level of the same molecule?
A: 20.85 and 20.05

Q: What about the C20orf29 expression level of the same molecule?
A: 8.83 and 7.98

Q: And the CALD1 expression level?
A: 28.16 and 24.92

Q: What about the CAP2 expression level of the same molecule?
A: 6.21 and 6.88

Q: What about the CAPN1 expression level of the same molecule?
A: 47.66 and 45.36

Q: What about the CASC5 expression level of the same molecule?
A: 8.52 and 8.14

Q: And the CAV2 expression level?
A: 13.23 and 12.84

Q: And the CCDC85C expression level?
A: 13.99 and 13.05

Q: And the CCDC99 expression level?
A: 61.28 and 55.39

Q: What about the CCDC102A expression level of the same molecule?
A: 2.18 and 1.83

Q: What about the CCDC150 expression level of the same molecule?
A: 3.18 and 3.23

Q: And the CD276 expression level?
A: 44.64 and 46.66

Q: And the CDC42EP3 expression level?
A: 3.11 and 2.92

Q: And the CDK1 expression level?
A: 61.18 and 65.43

Q: And the CDKL1 expression level?
A: 6.48 and 6.73

Q: And the CDKN2C expression level?
A: 30.46 and 26.27

Q: What about the CGN expression level of the same molecule?
A: 1.21 and 1.38

Q: What about the CHN1 expression level of the same molecule?
A: 6.56 and 6.26

Q: What about the CLPTM1L expression level of the same molecule?
A: 137.08 and 134.64

Q: What about the CNN2 expression level of the same molecule?
A: 47.78 and 46.33

Q: And the CNNM3 expression level?
A: 10.75 and 11.30

Q: And the COMMD1 expression level?
A: 12.70 and 12.99

Q: And the CRTC3 expression level?
A: 31.32 and 28.75

Q: And the CSRP2 expression level?
A: 30.49 and 33.02

Q: What about the CTNND1 expression level of the same molecule?
A: 21.98 and 23.56

Q: And the CTTNBP2 expression level?
A: 2.16 and 2.53

Q: What about the CYTH3 expression level of the same molecule?
A: 13.78 and 13.70

Q: And the DAB2 expression level?
A: 15.91 and 16.84

Q: What about the DAG1 expression level of the same molecule?
A: 27.42 and 30.65

Q: And the DBF4B expression level?
A: 6.80 and 6.36

Q: And the DCAF6 expression level?
A: 12.78 and 12.38

Q: And the DDR1 expression level?
A: 23.20 and 20.76

Q: And the DNMT3L expression level?
A: 1.04 and 0.90

Q: What about the DOCK1 expression level of the same molecule?
A: 11.83 and 12.65

Q: And the DOCK8 expression level?
A: 1.41 and 1.38

Q: And the DUSP1 expression level?
A: 278.63 and 269.45

Q: And the DUSP8 expression level?
A: 0.79 and 0.93

Q: And the ECT2 expression level?
A: 33.55 and 30.42

Q: What about the EMP2 expression level of the same molecule?
A: 8.82 and 9.39

Q: What about the EPB41L4A expression level of the same molecule?
A: 4.70 and 5.12

Q: And the ERCC2 expression level?
A: 21.00 and 19.80

Q: What about the ESAM expression level of the same molecule?
A: 3.07 and 3.33

Q: What about the ESYT2 expression level of the same molecule?
A: 32.11 and 32.37

Q: What about the F2R expression level of the same molecule?
A: 28.45 and 29.47

Q: And the FAM13B expression level?
A: 9.53 and 8.84

Q: What about the FAM83D expression level of the same molecule?
A: 34.40 and 31.73

Q: And the FAM127A expression level?
A: 137.05 and 133.03

Q: And the FARP1 expression level?
A: 32.38 and 34.32

Q: And the FBXL2 expression level?
A: 3.80 and 3.59

Q: And the FDFT1 expression level?
A: 43.70 and 46.85

Q: And the FGFR3 expression level?
A: 5.45 and 6.20

Q: What about the FSTL1 expression level of the same molecule?
A: 31.24 and 29.61

Q: And the FUBP1 expression level?
A: 41.68 and 44.21

Q: And the FZR1 expression level?
A: 11.76 and 10.90

Q: And the GALNT2 expression level?
A: 52.29 and 59.07

Q: And the GATSL1 expression level?
A: 3.56 and 3.66

Q: What about the GLCCI1 expression level of the same molecule?
A: 5.50 and 5.98

Q: And the GLI2 expression level?
A: 1.61 and 1.91

Q: What about the GNG10 expression level of the same molecule?
A: 35.68 and 34.10

Q: And the GPR176 expression level?
A: 6.89 and 6.58

Q: And the GTF3C1 expression level?
A: 29.06 and 29.38

Q: And the H3F3A expression level?
A: 242.14 and 260.31

Q: What about the HACL1 expression level of the same molecule?
A: 8.70 and 8.40

Q: And the HDAC1 expression level?
A: 74.08 and 73.05

Q: What about the HEG1 expression level of the same molecule?
A: 6.29 and 6.77

Q: What about the HIST1H3B expression level of the same molecule?
A: 1.94 and 1.96

Q: And the HMGB3 expression level?
A: 28.50 and 26.71

Q: What about the HMGN3 expression level of the same molecule?
A: 74.54 and 69.90

Q: And the HNRNPH2 expression level?
A: 55.22 and 51.55

Q: And the HSPB8 expression level?
A: 24.33 and 26.14

Q: What about the ICK expression level of the same molecule?
A: 4.87 and 5.19

Q: What about the ID3 expression level of the same molecule?
A: 119.77 and 102.82

Q: What about the IDH2 expression level of the same molecule?
A: 17.89 and 18.64

Q: And the IDI1 expression level?
A: 13.51 and 16.55

Q: And the IKBIP expression level?
A: 8.02 and 8.05

Q: And the INCENP expression level?
A: 24.44 and 25.00

Q: What about the INO80C expression level of the same molecule?
A: 1.90 and 1.87

Q: And the JUB expression level?
A: 13.13 and 12.45

Q: What about the KANK2 expression level of the same molecule?
A: 20.68 and 20.72

Q: What about the KHDRBS1 expression level of the same molecule?
A: 80.26 and 74.92

Q: And the KIF3B expression level?
A: 14.85 and 14.03

Q: What about the KIF5C expression level of the same molecule?
A: 0.60 and 0.55

Q: And the KIF11 expression level?
A: 24.10 and 21.47

Q: And the KIF18B expression level?
A: 12.16 and 12.54

Q: What about the KIF20B expression level of the same molecule?
A: 12.24 and 11.00

Q: What about the KIFC1 expression level of the same molecule?
A: 47.71 and 45.30

Q: What about the KITLG expression level of the same molecule?
A: 11.50 and 12.57

Q: And the KLF9 expression level?
A: 12.26 and 10.78

Q: And the KLHDC3 expression level?
A: 56.38 and 53.87

Q: And the KPNA2 expression level?
A: 179.32 and 162.46

Q: And the LAPTM4B expression level?
A: 71.83 and 68.84

Q: And the LMO7 expression level?
A: 19.87 and 20.69

Q: What about the LRRC16A expression level of the same molecule?
A: 6.80 and 7.88

Q: And the MAML2 expression level?
A: 2.44 and 2.29

Q: And the MANF expression level?
A: 42.22 and 45.27

Q: And the MAP3K14 expression level?
A: 8.59 and 8.30
